The target in the experiment is T1, protein phosphatase-1 catalytic subunit (PP1c) (Oryctolagus cuniculus, UniProt P62139).
T1 construct: gene PPP1CA; catalytic subunit
Kind of experiment: colorimetric pNPP phosphatase inhibition assay, absorbance at […] nm, PP1 […]. It is filed as biochemical.

In paper PMC7298613, “Degradation of okadaic acid in seawater by UV/TiO2 photocatalysis – Proof of concept” (The Science of the Total Environment, 2020) one finds IC50 data, which are given here for one compound.

T1 sequence (P62139 2-330): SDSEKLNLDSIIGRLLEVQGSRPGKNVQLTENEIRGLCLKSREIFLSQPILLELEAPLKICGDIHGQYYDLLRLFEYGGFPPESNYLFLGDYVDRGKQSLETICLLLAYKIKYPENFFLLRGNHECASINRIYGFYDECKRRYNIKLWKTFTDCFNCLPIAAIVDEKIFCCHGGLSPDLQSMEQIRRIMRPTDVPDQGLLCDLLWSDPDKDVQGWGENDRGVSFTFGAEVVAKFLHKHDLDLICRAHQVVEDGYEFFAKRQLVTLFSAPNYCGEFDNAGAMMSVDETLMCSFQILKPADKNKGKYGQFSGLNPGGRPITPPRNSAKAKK

In turn, `C=C1[C@@H](O)[C@@H]2O[C@]3(CC[C@H](/C=C/[C@@H](C)[C@@H]4CC(C)=C[C@@]5(O[C@H](C[C@@](C)(O)C(=O)O)CC[C@H]5O)O4)O3)CC[C@H]2O[C@@H]1[C@@H](O)C[C@H](C)[C@H]1O[C@@]2(CCCCO2)CC[C@H]1C` [OA, okadaic acid] returned a half-maximal inhibitory concentration (IC50) of 1.18 µM.

As usually defined, the IC50 is the concentration that inhibits the measured activity by half.
